# Test results from patent US4398937A, “Selective algaecides for control of cyanochloronta” (The University of Southern Mississippi, priority 1981, dated 1983).
# Key:
# Lyngbya = test: Selective effect on algae in test tubes (Table V), Lyngbya; type: cell-based; conditions: for cells/ml: 13 days after innoculation, average of 3 samples
# Experimental: (§1) Another laboratory experiment was run to further substantiate the selective effect of one of the algaecides, potassium ricinoleate. Two species of blue-green algae, Lyngbya and Cylindrospermum, and three species of green algae, Chlorella, Haematococcus and Stigeoclonium and Tribonema, a yellow-green alga of the division Chrysophycophyta, were treated as follows: Twenty ml test tubes of sterile BBM culture solution were innoculated with each alga. All species of algae were evaluated with three groups, control, 2.5 ppm algaecide and 7.5 ppm algaecide. Each group was run with triplicate samples.
# (§2) Controls were counted 6 days after innoculation, algaecide was added to the treatment groups seven days after innoculation and all test tubes were counted thirteen days after innoculation. The results are shown in Table V. After seven days, there was a 31% reduction in the Lyngbya cultures at 2.5 ppm algaecide and a 40% reduction at 7.5 ppm. After seven days, there was a 60% reduction in Cylindrospermum cultures at 2.5 ppm algaecide and a 72% reduction at 7.5 ppm. […] After thirteen days, there was a 55% reduction in numbers at both 2.5 ppm and 7.5 ppm. After twenty days there was a 27% reduction at both concentrations. […] They are, like blue-green algae, often associated with taste and odor problems.
# Chlorella = test: Selective effect on algae in test tubes (Table V), Chlorella; type: cell-based; conditions: for cells/ml: 13 days after innoculation, average of 3 samples
# Experimental: as §1, §2
# Stigeoclonium = test: Selective effect on algae in test tubes (Table V), Stigeoclonium; type: cell-based; conditions: for cells/ml: 13 days after innoculation, average of 3 samples
# Experimental: as §1, §2
# Tribonema = test: Selective effect on algae in test tubes (Table V), Tribonema; type: cell-based; conditions: for cells/ml: average of 3 samples
# Experimental: as §1, §2
# blue-green algae = test: Field Experiment I, catfish pond, blue-green algae; type: in vivo, blue-green algae (mainly Microcystis sp.); conditions: 10 ppm
# Experimental: (§3) 1, 1980, to Mar. 19, 1981.
# (§4) On July 30, 1980, most ponds had numbers of blue-green algae exceeding 2×10^6 cells/liter. These algae were predominantly Oscillatoria,Microcystis and Anacystis with smaller numbers of Nostoc, Anabaena and Lyngbya. The experimental pond had 1.2×10^6 cells/liter composed mainly of Microcystis sp. Large numbers of copepods and rotifers were present. On July 30, the pond was treated with 10 ppm potassium ricinoleate by distributing a 30% aqueous solution evenly through the water column by pump from a small boat. […] This is further substantiated by the dry weights and chlorophyll a levels.
# green algae [1] = test: Field Experiment I, catfish pond, green algae and other phytoplankton; type: in vivo; conditions: 10 ppm
# Experimental: as §3, §4
# [2] = Field Experiment I, total organism dry weight; type: in vivo; conditions: 10 ppm
# Experimental: as §3, §4
# green algae [3] = test: Field Experiment II, catfish pond, green algae; type: in vivo; conditions: 2 ppm
# zooplankton = test: Field Experiment III, pond, zooplankton; type: in vivo; conditions: 2 ppm on 6/9/81
# Experimental: (§5) In Field Experiment III, a small two acre pond was monitored for a complete year for plankton organisms as before. Oscillatoria and Microcystis were usually the prevalent blue-green algae. On 6/9/81 the pond was experiencing a bloom consisting completely of Oscillatoria. Channel catfish from the ponds had the characteristic earthy, musty taste and odor of 4 and 4 respectively on the 0 to 5 scale. The pond was treated on this date with 2 ppm potassium ricinoleate, one of the selective algaecides, as before.
# Channel catfish = test: Field Experiment III, taste and odor of channel catfish; type: in vivo; conditions: 2 ppm on 6/9/81; June 22
# Experimental: as §5
# [4] = test system: sewage containing mostly green algae; test: Sewage treatment test 1, mostly green algae; conditions: for cells/liter: after six days of aeration
# Experimental: (§6) Two experiments were performed on sewage to further illustrate the utility of these algaecides. In the first experiment, sewage containing mostly green algae was treated with relatively high concentrations of potassium ricinoleate.
# Rhizochrysis = test: Sewage treatment test 1, Rhizochrysis; conditions: six days after treatment
# Experimental: as §6
# [5] = in vivo
# [6] = 168 h, read-out: reduction in cultures
# [7] = 2.5 and 7.5 ppm, after seven days
# [8] = 7/31 post-treatment (treated July 30, 1980)
# [9] = 11/21 post-treatment (normal winter reduction)
compound,measurement,setting,value
CCCCCC[C@@H](O)C/C=C\CCCCCCCC(=O)[O-].[K+],cells/ml,Lyngbya; 2.5 ppm,2340 cells/ml
same,cells/ml,Lyngbya; 7.5 ppm,2010 cells/ml
same,inhibition of growth at 2.5 ppm,Lyngbya; [6],31%
same,inhibition of growth at 7.5 ppm,Lyngbya; [6],40%
same,effect,Chlorella; [7],slightly inhibited
same,cells/ml,Chlorella; 2.5 ppm,44000 cells/ml
same,cells/ml,Chlorella; 7.5 ppm,49000 cells/ml
same,effect,Stigeoclonium; [7],remained unchanged
same,cells/ml,Stigeoclonium; 2.5 ppm,1900 cells/ml
same,cells/ml,Stigeoclonium; 7.5 ppm,1900 cells/ml
same,cells/ml,"Tribonema; 2.5 ppm, 13 days after innoculation",5885 cells/ml
same,cells/ml,"Tribonema; 2.5 ppm, 20 days after innoculation",10510 cells/ml
same,cells/ml,"Tribonema; 7.5 ppm, 13 days after innoculation",5335 cells/ml
same,cells/ml,"Tribonema; 7.5 ppm, 20 days after innoculation",10295 cells/ml
same,reduction in numbers,"Tribonema; both 2.5 ppm and 7.5 ppm, after thirteen days",55%
same,reduction in numbers,"Tribonema; both concentrations (2.5 and 7.5 ppm), after twenty days",27%
same,Cells/Liter of bluegreen algae,blue-green algae; [8],3.2 × 10^5 Cells/Liter
same,Cells/Liter of bluegreen algae,blue-green algae; 8/1 post-treatment,1.8 × 10^5 Cells/Liter
same,Cells/Liter of bluegreen algae,blue-green algae; 8/6 post-treatment,1.0 × 10^5 Cells/Liter
same,Cells/Liter of bluegreen algae,blue-green algae; 8/19 post-treatment,5.4 × 10^5 Cells/Liter
same,Cells/Liter of bluegreen algae,blue-green algae; 9/6 post-treatment,3.8 × 10^5 Cells/Liter
same,Cells/Liter of bluegreen algae,blue-green algae; 9/23 post-treatment,1.9 × 10^6 Cells/Liter
same,Cells/Liter of bluegreen algae,blue-green algae; [9],0 Cells/Liter
same,Cells/Liter of bluegreen algae,blue-green algae; 12/14 post-treatment,3.0 × 10^4 Cells/Liter
same,blue-green algae killed,blue-green algae; seven days after treatment,93%
same,Cells/Liter of green algae,green algae [1]; [8],6.2 × 10^4 Cells/Liter
same,Cells/Liter of green algae,green algae [1]; 8/1 post-treatment,5.0 × 10^4 Cells/Liter
same,Cells/Liter of green algae,green algae [1]; 8/6 post-treatment,2.1 × 10^4 Cells/Liter
same,Cells/Liter of green algae,green algae [1]; 8/19 post-treatment,0 Cells/Liter
same,Cells/Liter of green algae,green algae [1]; 9/6 post-treatment,1.7 × 10^4 Cells/Liter
same,Cells/Liter of green algae,green algae [1]; 9/23 post-treatment,4.5 × 10^5 Cells/Liter
same,Cells/Liter of green algae,green algae [1]; [9],2.5 × 10^3 Cells/Liter
same,Cells/Liter of green algae,green algae [1]; 12/14 post-treatment,0 Cells/Liter
same,numbers of other phytoplankton,green algae [1]; seven days after treatment,essentially unchanged or increased in numbers
same,Dry Wgts,[2]; [8],2.19 Gm/Liter
same,Dry Wgts,[2]; 8/1 post-treatment,4.45 Gm/Liter
same,Dry Wgts,[2]; 8/6 post-treatment,17.90 Gm/Liter
same,Dry Wgts,[2]; 8/19 post-treatment,5.34 Gm/Liter
same,Dry Wgts,[2]; 9/6 post-treatment,20.69 Gm/Liter
same,Dry Wgts,[2]; 9/23 post-treatment,9.06 Gm/Liter
same,Dry Wgts,[2]; [9],1.03 Gm/Liter
same,Dry Wgts,[2]; 12/14 post-treatment,4.84 Gm/Liter
same,Cells/liter green algae,"green algae [3]; 5/26/81 B post-treat, 4 p.m., Deep, prevalent Mic",3.2 × 10^5 Cells/liter
same,Cells/liter green algae,"green algae [3]; 5/26/81 C post-treat, 4 p.m., Shallow, prevalent Ped",2.0 × 10^5 Cells/liter
same,Cells/liter green algae,"green algae [3]; 5/27/81 D, 9:40 p.m., Deep, prevalent Ped",2.6 × 10^5 Cells/liter
same,Cells/liter green algae,"green algae [3]; 5/27/81 E, 9:40 p.m., Shallow, prevalent Ped",1.09 × 10^5 Cells/liter
same,Cells/liter green algae,"green algae [3]; 5/28/81 F, 7 a.m., prevalent Ped",1.3 × 10^5 Cells/liter
same,Cells/liter green algae,"green algae [3]; 5/28/81 G, 11 a.m., prevalent Ped",1.1 × 10^5 Cells/liter
same,green algae after treatment,"green algae [3]; through June, 1981",remained unchanged
same,Zoo #'s/liter,zooplankton; 6/10/81,2251 #'s/liter
same,Zoo #'s/liter,zooplankton; 6/12/81,4948 #'s/liter
same,Zoo #'s/liter,zooplankton; 6/22/81,4541 #'s/liter
same,"earthy, musty taste and odor of sample fish",Channel catfish,"lost all of the earthy, musty taste and odor"
same,cells/liter,[4]; 18.4 ppm,1.91 × 10^5 cells/liter
same,cells/liter,[4]; 46.0 ppm,1.33 × 10^5 cells/liter
same,cells/liter,[4]; 92.0 ppm,2.30 × 10^5 cells/liter
same,cells/liter,[4]; 184.1 ppm,2.72 × 10^5 cells/liter
same,effect on green algae,[4]; six days after treatment,somewhat stimulated
same,presence of Rhizochrysis,Rhizochrysis,completely absent
same,oxygen depletion problems,[5],no oxygen depletion problems noted
